What was measured:
[1] = biological target: T1, Pancreatic triacylglycerol lipase (Sus scrofa) (UniProt P00591); details: 10 uM
T1 sequence (whole entry): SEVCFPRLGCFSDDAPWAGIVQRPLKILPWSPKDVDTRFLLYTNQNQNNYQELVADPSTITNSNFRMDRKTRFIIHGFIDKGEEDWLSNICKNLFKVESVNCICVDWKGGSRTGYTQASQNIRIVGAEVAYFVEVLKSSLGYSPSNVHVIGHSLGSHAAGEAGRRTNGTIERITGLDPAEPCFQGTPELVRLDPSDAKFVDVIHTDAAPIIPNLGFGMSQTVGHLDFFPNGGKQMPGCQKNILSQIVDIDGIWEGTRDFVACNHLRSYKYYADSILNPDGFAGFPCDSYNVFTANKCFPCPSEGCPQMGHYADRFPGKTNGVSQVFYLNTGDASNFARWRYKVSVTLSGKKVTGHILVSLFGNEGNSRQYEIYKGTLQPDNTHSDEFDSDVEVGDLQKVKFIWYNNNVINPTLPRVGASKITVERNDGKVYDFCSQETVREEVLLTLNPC
Description: Inhibition of porcine pancreatic lipase assessed as hydrolysis of p-NPB to p-nitrophenol at 10 uM by microplate reader relative to control

[2] = biological target: T2, Pancreatic triacylglycerol lipase (Sus scrofa, UniProt P00591); experiment: Inhibition of porcine pancreatic lipase assessed as hydrolysis of p-NPB to p-nitrophenol by microplate reader
T2 sequence (P00591 whole entry): T1 sequence (whole entry)

SMILES: CC(C)=CCc1c(O)c(CC=C(C)C)c2occ(-c3ccc(O)cc3)c(=O)c2c1O
- inhibition [1]: 72.2%
- IC50 [2]: 65 µM
